The subject of series [1] is thymine dimers in genomic DNA of MatTek's EpiDerm tissue. The series is described as follows: Thymine dimer formation after UVB. The following applies: 300 mJ/cm^2 UVB, then 1 mM, 100 μl topically for 24 hours. Type of series: cell-based, human. As for the experimental part:
This method was designed to evaluate changes in tissue DNA thymine dimer content after exposure to UVB. The testing system used for this assay was MatTek's EpiDerm tissue, a skin model that consists of normal human-derived epidermal keratinocytes cultured to form a multilayered, highly differentiated model of the human epidermis. For this study, the tissues were exposed to UVB (300 mJ/cm^2) and then treated topically for 24 hours with the test material. Following the treatment the DNA was extracted from the EpiDerm tissues and assayed for thymine dimer content. For the assay, samples of the DNA were immobilized on a solid membrane support and incubated with an antibody that recognizes thymine dimers in double stranded DNA. The primary antibody was then detected using a secondary antibody conjugated to a fluorescent dye. The membrane was then scanned using an excitation laser and emission filter combination appropriate for the fluorescent dye. With this method, the fluorescence intensity of each sample is proportional to the amount of the thymine dimers present in the sample. […] UVB lamp intensity was measured using a UVX radiometer with a probe specific for UVB (detects 260-360 nm, max absorbance at 310 nm, calibrated at 310 nm) to determine exposure times required for the appropriate UVB dose. […] Extracted DNA was quantified via a fluorometric assay. […]

For another series, the system named is MatTek's EpiDerm tissue. The series is described as follows: UVB protection assay, MTT tissue viability. Type of series: cell-based, human. The following applies: 300 mJ/cm^2 UVB, then 1 mM, 100 μl topically for 24 hours; in % (unit assumed). As for the experimental part:
MatTek's EpiDerm tissue, a skin model that consists of normal human-derived epidermal keratinocytes cultured to form a multilayered, highly differentiated model of the human epidermis, was used to measure changes in tissue viability. The tissues were exposed to 300 mJ/cm^2 of UVB radiation and subsequently topically treated with the aforementioned test materials over a period of 24 hours. Materials were tested for their abilities to either maintain tissue viability after UVB exposure or aid in the recovery of tissue damaged by UVB radiation. […] The MTT analysis involved a colorimetric analysis of tissue metabolic activity, the increased presence of color indicating the presence of metabolically-active living cells. Reduction of MTT by mitochondria in viable cells results in purple formazin crystals; the intensity of the purple color is directly proportional to metabolically active cells in the tissue. The tissues were stored at 4° C. until used. […] One gram of WAF was mixed with 10 ml of water for one hour at room temperature. The WAF-water mixture was then centrifuged for 5 minutes to pellet any undissolved material and the supernatant was used for topical application. The Sample B, Sample F, and Sample A were applied topically without any further processing. […] Reduced MTT was subsequently extracted from the tissues and colorimetrically analyzed at 540 nm to determine tissue viability.

Series [2] has as its system hyaluronic acid synthesis in fibroblasts. The series is described as follows: Hyaluronic Acid Assay (ELISA, fibroblast culture medium). Format: cell-based. As for the experimental part: (§1) The type I C-peptide fragment was measured because procollagen, a precursor to mature collagen, is cleaved in collagen and type I C-peptide fragments in a 1:1 ratio. By measuring the amount of type I C-peptide fragments in the tissue medium, collagen production was measured. Elastin was measured directly from the cell culture medium. Hyaluronic acid was measured in the tissue culture media. All measurements were performed using an ELISA based method.
(§2) Powder materials were prepared by combining 1 gram of the powder material with either 10 ml ultrapure water or 10 ml of DMSO. The mixtures were incubated for one hour at room temperature on a rocking platform to saturate the extraction medium with the test material. The mixture was then centrifuged to separate the saturated extract solution from the undissolved solid materials. The oil based materials were prepared as a stock solution in DMSO and then diluted into the culture media such that the final concentration of DMSO was 1%. A 1% DMSO control was included to account for any effect the solvent might have when evaluating the effect of the oils or DMSO prepared powders.
The fibroblast cell culture was prepared by seeding fibroblasts into the individuals wells of a 24-well plate in 0.5 ml of Fibroblast Growth Media (FGM) and incubated overnight at 37±2° C. and at 5±1% CO2. The media was removed via aspiration to eliminate non-adherent cells and replaced with 0.5 ml of fresh FGM. The medium was changed every 48 to 72 hours until the cells growth reached confluency. Once confluent, the cells were treated for 24 hours with DMEM supplemented with 1.5% FBS to wash out any growth factors present in the normal culture media.
The prepared fibroblast cell cultures were then treated with the prepared test materials at the aforementioned concentrations dissolved in FGM with 1.5% FBS. TGF-B at a concentration of 50 ng/ml was used as a positive control for collagen and elastin, and dibutyrl cAMP at a concentration of 0.1 mM was used as a positive control for hyaluronic acid. Untreated cells received DMEM with 1.5% FBS. The cells were incubated for 48 hours and then either frozen or assayed immediately. Materials were tested in triplicate.
A series of hyaluronic acid standards was prepared ranging from 50 ng/ml to 3,200 ng/ml. Next, 100 μl of each standard (in duplicate) and sample was transferred to a well in an incubation plate. After adding 50 μl of detection solution to each well (except the reagent blank wells) the plate was incubated for 1±0.25 hour at 37±2° C. […] After this final incubation 50 μl of stop solution was added to each well and the absorbance of the plate was measured at 405 nm using a plate reader.
A general note: An ELISA detects its analyte on a solid surface through an enzyme-linked reagent.

The test system of series [3] is procollagen synthesis in fibroblasts. Put plainly: Type I Collagen Assay (type I C-peptide ELISA, fibroblast culture medium). Type of series: cell-based. The following applies: 48 h. The procedure: as §1
as §2, with “powders. […]” for “powders.”
A series of type I C-peptide standards were prepared ranging from 0 ng/ml to 640 ng/ml for the procollagen assay. […] After the incubation 100 μl of stop solution (1 N sulfuric acid) was added to each well and the plate was read using a microplate reader at 450 nm.

The test system of series [4] is elastin synthesis in fibroblasts. The series is described as follows: Elastin Assay (ELISA, fibroblast culture medium). Format: cell-based. The following applies: 48 h. As for the experimental part: as §1
as §2, with “powders. […]” for “powders.”
A set of alpha-elastin standards was generated ranging from 0 to 100 ng/ml. […] After the final incubation, the plate was read at 460 nm using a plate reader.

With `Cc1c(C)c2c(c(C)c1O)CCC(C)(C(=O)O)O2` (stereo not shown) [Trolox, 6-hydroxy-2,5,7,8-tetramethylchroman-2-carboxylic acid], the “Thymine Dimer Formation” value in series [1] was 296.5 ± 12.2 ng/mL. The molecule further had a Viability in the series on MatTek's EpiDerm tissue of 98 ± 5.6.

`CCCC(=O)Nc1ncnc2c1ncn2[C@@H]1O[C@@H]2COP(=O)(O)O[C@H]2[C@H]1OC(=O)CCC` [dBcAMP, dibutyrl cAMP]: the “Hyaluronic Acid” value in series [2] (Table Va, 0.1 mM, 48 h) came to 494 ± 51 ng/mL; in series [2] (Table Vb, 0.1 mM), 547 ± 31 ng/mL. The “Type I C-Peptide” value in series [3] (0.1 mM) is 3438 ± 277 ng/mL. Moreover, in series [4] (0.1 mM), the Elastin stood at 43 ± 16 ng/mL.

Turning to TGF-B, the “Hyaluronic Acid” value was 260 ± 34 ng/mL in series [2] (Table Va, 50 ng/ml, 48 h) and 528 ± 96 ng/mL in series [2] (Table Vb, 50 ng/ml). Besides, the “Type I C-Peptide” value in series [3] (50 ng/ml) worked out at 5282 ± 178 ng/mL. The molecule further yielded an Elastin in series [4] (50 ng/ml) of 178 ± 6 ng/mL.

The values above are taken from US20150352034A1, “Personal Care Products Containing Microalgae or Extracts Thereof” (Solazyme, Inc., priority 2014, published 2015).
